ChEMBL document CHEMBL1131484, “Human growth hormone-releasing hormone hGHRH(1-29)-NH2: systematic structure-activity relationship studies” (J Med Chem, 1998)
Square brackets hold non-standard residues; d marks the D form. Peptide text beside a SMILES is read from it. αMeY = C[C@](N)(Cc1ccc(O)cc1)C(=O)O

target: T1, Growth hormone-releasing hormone receptor (Rattus norvegicus) (UniProt Q02644); assay: Potency for growth hormone releasing hormone receptor (GHRFR) relative to human GHRH(1-40)OH- in the rat pituitary cell culture assay; type: functional, cell-based; settings: Pituitary gland cell
T1 sequence (whole entry): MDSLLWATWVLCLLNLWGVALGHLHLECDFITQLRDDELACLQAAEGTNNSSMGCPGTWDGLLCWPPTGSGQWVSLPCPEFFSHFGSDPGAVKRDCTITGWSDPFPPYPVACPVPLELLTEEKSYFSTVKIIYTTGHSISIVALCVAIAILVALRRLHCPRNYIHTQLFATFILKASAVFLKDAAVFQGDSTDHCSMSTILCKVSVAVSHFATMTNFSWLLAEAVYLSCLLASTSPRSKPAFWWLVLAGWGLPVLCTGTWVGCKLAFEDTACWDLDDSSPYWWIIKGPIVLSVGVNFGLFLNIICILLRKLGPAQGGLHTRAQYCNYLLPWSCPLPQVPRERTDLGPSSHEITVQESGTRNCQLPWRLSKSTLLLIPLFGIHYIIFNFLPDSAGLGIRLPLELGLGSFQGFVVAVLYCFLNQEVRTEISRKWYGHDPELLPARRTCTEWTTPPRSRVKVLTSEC

| Relative potency | Molecule |
| --- | --- |
| 1.5 | CCCC[C@H]1NC(=O)[C@H]([C@@H](C)CC)NC(=O)[C@H](NC(=O)[C@H](Cc2c[nH]cn2)NC(=O)[C@H](CC(C)C)NC(=O)[C@H](CC(C)C)NC(=O)[C@H](CCCCN)NC(=O)[C@H](CCCN=C(N)N)NC(=O)[C@H](Cc2ccccc2)NC(=O)[C@@H](NC(=O)[C@H](CC(C)C)NC(=O)[C@H](CCC(N)=O)NC(=O)[C@H](C)NC(=O)[C@H](CC(C)C)NC(=O)[C@@H](NC(=O)[C@H](CCCN=C(N)N)NC(=O)[C@H](CCCN=C(N)N)NC(=O)[C@H](Cc2ccc(O)cc2)NC(=O)[C@H](CO)NC(=O)[C@H](CO)NC(=O)[C@@H](NC(=O)[C@H](Cc2ccccc2)NC(=O)[C@@H](NC(=O)[C@H](C)NC(=O)[C@H](CC(=O)O)NC(=O)[C@H](C)NC(=O)[C@@](C)(N)Cc2c[nH]cn2)[C@@H](C)CC)[C@@H](C)O)[C@@H](C)CC)[C@@H](C)CC)CSSC[C@H](C(N)=O)NC(=O)[C@H](CC(N)=O)NC1=O |
| 1.1 | H-YADAIFTNSYRKVLGQLSARKLLQDAMSR-NH2 |
| 0.014 | CC[C@H](C)[C@H](NC(=O)[C@H](C)NC(=O)[C@H](CC(=O)O)NC(=O)[C@H](C)NC(=O)[C@@H](N)Cc1ccc(O)cc1)C(=O)N[C@@H](Cc1ccccc1)C(=O)N[C@H](C(=O)N[C@H]1CCC(=O)NCCCC[C@H](C(=O)N[C@@H](CCCCN)C(=O)N[C@H](C(=O)N[C@@H](CC(C)C)C(=O)NCC(=O)N[C@@H](CCC(N)=O)C(=O)N[C@@H](CC(C)C)C(=O)N[C@@H](CO)C(=O)N[C@@H](C)C(=O)N[C@@H](CCCN=C(N)N)C(=O)N[C@@H](CCCCN)C(=O)N[C@@H](CC(C)C)C(=O)N[C@@H](CC(C)C)C(=O)N[C@@H](CCC(N)=O)C(=O)N[C@@H](CC(=O)O)C(=O)N[C@H](C(=O)N[C@@H](CCSC)C(=O)N[C@@H](CO)C(=O)N[C@@H](CCCN=C(N)N)C(N)=O)[C@@H](C)CC)C(C)C)NC(=O)[C@H](Cc2ccc(O)cc2)NC(=O)[C@H](CO)NC1=O)[C@@H](C)O |
| 0.008 | CC[C@@H](C)[C@@H](NC(=O)[C@@H](C)NC(=O)[C@@H](CC(=O)O)NC(=O)[C@@H](C)NC(=O)[C@H](N)Cc1ccc(O)cc1)C(=O)N[C@H](Cc1ccccc1)C(=O)N[C@@H]1CCC(=O)NCCCC[C@@H](C(=O)N[C@@H](CCCN=C(N)N)C(=O)N[C@@H](CCCCN)C(=O)N[C@H](C(=O)N[C@@H](CC(C)C)C(=O)NCC(=O)N[C@@H](CCC(N)=O)C(=O)N[C@@H](CC(C)C)C(=O)N[C@@H](CO)C(=O)N[C@@H](C)C(=O)N[C@@H](CCCN=C(N)N)C(=O)N[C@@H](CCCCN)C(=O)N[C@@H](CC(C)C)C(=O)N[C@@H](CC(C)C)C(=O)N[C@@H](CCC(N)=O)C(=O)N[C@@H](CC(=O)O)C(=O)N[C@H](C(=O)N[C@@H](CCSC)C(=O)N[C@@H](CO)C(=O)N[C@@H](CCCN=C(N)N)C(N)=O)[C@@H](C)CC)C(C)C)NC(=O)[C@H](CO)NC(=O)[C@@H](CC(N)=O)NC1=O |
| 0.3 | H-YADAIFTNSYRKVLGQLSAAKLLQDIMSR-NH2 |
| 0.27 | H-YADAIFTNSYRKVLGQLSARALLQDIMSR-NH2 |
| 0.05 | H-YAAAIFTNSYRKVLGQLSARKLLQDIMSR-NH2 |
| 1.9 | CC[C@H](C)[C@H](NC(=O)[C@H](C)NC(=O)[C@H](CC(=O)O)NC(=O)[C@H](C)NC(=O)[C@@H](N)Cc1ccc(O)cc1)C(=O)N[C@@H](Cc1ccccc1)C(=O)N[C@H](C(=O)N[C@@H](CC(N)=O)C(=O)N[C@@H](CO)C(=O)N[C@@H](Cc1ccc(O)cc1)C(=O)N[C@@H](CCCN=C(N)N)C(=O)N[C@@H](CCCCN)C(=O)N[C@H](C(=O)N[C@@H](CC(C)C)C(=O)NCC(=O)N[C@@H](CCC(N)=O)C(=O)N[C@@H](CC(C)C)C(=O)N[C@@H](CO)C(=O)N[C@@H](C)C(=O)N[C@@H](CCCN=C(N)N)C(=O)N[C@@H](CCCCN)C(=O)N[C@@H](CC(C)C)C(=O)N[C@@H](CC(C)C)C(=O)N[C@@H](CCC(N)=O)C(=O)N[C@@H](CC(=O)O)C(=O)N[C@H](C(=O)N[C@@H](CCSC)C(=O)N[C@@H](C)C(=O)N[C@@H](CCCN=C(N)N)C(N)=O)[C@@H](C)CC)C(C)C)[C@@H](C)O (stereo in doubt; 27) |
| 0.16 | H-YADAIFTNSYRAVLGQLSARKLLQDIMSR-NH2 |
| 1.3 | H-YADAIFTNSYRKVLGQLSARKLLQAIMSR-NH2 |
| 0.23 | CC[C@H](C)[C@H](NC(=O)[C@H](C)NC(=O)[C@H](CC(=O)O)NC(=O)[C@H](C)NC(=O)[C@@H](N)Cc1ccc(O)cc1)C(=O)N[C@@H](Cc1ccccc1)C(=O)N[C@H](C(=O)N[C@@H](CC(N)=O)C(=O)N[C@@H](CO)C(=O)N[C@@H](Cc1ccc(O)cc1)C(=O)N[C@@H](CCCN=C(N)N)C(=O)N[C@@H](CCCCN)C(=O)N[C@H](C(=O)N[C@@H](CC(C)C)C(=O)NCC(=O)N[C@@H](CCC(N)=O)C(=O)N[C@@H]1CCC(=O)NCCCC[C@@H](C(=O)N[C@H](CCCCN)C(=O)N[C@@H](CC(C)C)C(=O)N[C@@H](CC(C)C)C(=O)N[C@@H](CCC(N)=O)C(=O)N[C@@H](CC(=O)O)C(=O)N[C@H](C(=O)N[C@@H](CCSC)C(=O)N[C@@H](CO)C(=O)N[C@@H](CCCN=C(N)N)C(N)=O)[C@@H](C)CC)NC(=O)[C@H](C)NC(=O)[C@@H](CO)NC1=O)C(C)C)[C@@H](C)O |
| 11.2 | CC[C@H](C)[C@H](NC(=O)[C@H](C)NC(=O)[C@H](CC(=O)O)NC(=O)[C@H](C)NC(=O)[C@@](C)(N)Cc1ccc(O)cc1)C(=O)N[C@@H](Cc1ccccc1)C(=O)N[C@H](C(=O)N[C@@H](C)C(=O)N[C@@H](C)C(=O)N[C@@H](Cc1ccc(O)cc1)C(=O)N[C@@H](CCCN=C(N)N)C(=O)N[C@@H](CCCCN)C(=O)N[C@H](C(=O)N[C@@H](CC(C)C)C(=O)N[C@@H](C)C(=O)N[C@@H](CCC(N)=O)C(=O)N[C@@H](CC(C)C)C(=O)N[C@@H](CO)C(=O)N[C@@H](C)C(=O)N[C@@H](CCCN=C(N)N)C(=O)N[C@@H](CCCCN)C(=O)N[C@@H](C)C(=O)N[C@@H](CC(C)C)C(=O)N[C@@H](CCC(N)=O)C(=O)N[C@@H](CC(=O)O)C(=O)N[C@H](C(=O)N[C@@H](CCSC)C(=O)N[C@@H](C)C(=O)N[C@@H](CCCN=C(N)N)C(N)=O)[C@@H](C)CC)C(C)C)[C@@H](C)O (H-[αMeY]ADAIFTAAYRKVLAQLSARKALQDIMAR-NH2) |
| 0.32 | H-YADAIFTNSYRKVLGQLSARKLLQDIASR-NH2 |
| 0.4 | CC[C@@H](C)[C@@H](NC(=O)[C@@H](CC(=O)O)NC(=O)[C@@H](CCC(N)=O)NC(=O)[C@@H](CC(C)C)NC(=O)[C@H]1CCCCNC(=O)CC[C@H](NC(=O)[C@H](CO)NC(=O)[C@H](CC(C)C)NC(=O)[C@H](CCC(N)=O)NC(=O)CNC(=O)[C@H](CC(C)C)NC(=O)[C@@H](NC(=O)[C@H](CCCCN)NC(=O)[C@H](CCCN=C(N)N)NC(=O)[C@H](Cc2ccc(O)cc2)NC(=O)[C@H](CO)NC(=O)[C@H](CC(N)=O)NC(=O)[C@@H](NC(=O)[C@H](Cc2ccccc2)NC(=O)[C@@H](NC(=O)[C@H](C)NC(=O)[C@H](CC(=O)O)NC(=O)[C@H](C)NC(=O)[C@@H](N)Cc2ccc(O)cc2)[C@@H](C)CC)[C@@H](C)O)C(C)C)C(=O)N[C@@H](CCCN=C(N)N)C(=O)N[C@H](CCCCN)C(=O)N1)C(=O)N[C@@H](CCSC)C(=O)N[C@@H](CO)C(=O)N[C@@H](CCCN=C(N)N)C(N)=O |
| 4.5 | CC[C@@H](C)[C@@H](NC(=O)[C@@H](CC(=O)O)NC(=O)[C@H]1CCCCNC(=O)CC[C@H](NC(=O)[C@H](CCCN=C(N)N)NC(=O)[C@H](C)NC(=O)[C@H](CO)NC(=O)[C@H](CC(C)C)NC(=O)[C@H](CCC(N)=O)NC(=O)CNC(=O)[C@H](CC(C)C)NC(=O)[C@@H](NC(=O)[C@H](CCCCN)NC(=O)[C@H](CCCN=C(N)N)NC(=O)[C@H](Cc2ccc(O)cc2)NC(=O)[C@H](CO)NC(=O)[C@H](CC(N)=O)NC(=O)[C@@H](NC(=O)[C@H](Cc2ccccc2)NC(=O)[C@@H](NC(=O)[C@H](C)NC(=O)[C@H](CC(=O)O)NC(=O)[C@H](C)NC(=O)[C@@H](N)Cc2ccc(O)cc2)[C@@H](C)CC)[C@@H](C)O)C(C)C)C(=O)N[C@@H](CC(C)C)C(=O)N[C@H](CC(C)C)C(=O)N1)C(=O)N[C@H](CCSC)C(=O)N[C@H](CO)C(=O)N[C@H](CCCN=C(N)N)C(N)=O |
| 0.06 | H-YADAIFTNSYRKALGQLSARKLLQDIMSR-NH2 |
| 0 | H-YADAIATNSYRKVLGQLSARKLLQDIMSR-NH2 |
| 1.8 | CC[C@H](C)[C@H](NC(=O)[C@H](C)NC(=O)[C@H](CC(=O)O)NC(=O)[C@H](C)NC(=O)[C@@H](N)Cc1ccc(O)cc1)C(=O)N[C@@H](Cc1ccccc1)C(=O)N[C@H](C(=O)N[C@@H](CC(N)=O)C(=O)N[C@@H](CO)C(=O)N[C@@H](Cc1ccc(O)cc1)C(=O)N[C@@H](CCCN=C(N)N)C(=O)N[C@@H](CCCCN)C(=O)N[C@H](C(=O)N[C@@H](CC(C)C)C(=O)NCC(=O)N[C@@H](CCC(N)=O)C(=O)N[C@@H](CC(C)C)C(=O)N[C@@H]1CCC(=O)NCCCC[C@@H](C(=O)N[C@@H](CC(C)C)C(=O)N[C@@H](CC(C)C)C(=O)N[C@@H](CCC(N)=O)C(=O)N[C@@H](CC(=O)O)C(=O)N[C@H](C(=O)N[C@@H](CCSC)C(=O)N[C@@H](CO)C(=O)N[C@@H](CCCN=C(N)N)C(N)=O)[C@@H](C)CC)NC(=O)[C@H](CCCN=C(N)N)NC(=O)[C@@H](C)NC1=O)C(C)C)[C@@H](C)O |
| 2.1 | H-YADAIFTASYRKVLGQLSARKLLQDIMSR-NH2 |
| 0.01 | H-YADAIFTNSYAKVLGQLSARKLLQDIMSR-NH2 |
| 4.7 | H-YADAIFTNSYRKVLGQLSARKALQDIMSR-NH2 |
